We go through 48 molecules from US20250122192A1, “5-PYRIMIDINECARBOXAMIDE DERIVATIVES AND METHODS OF USING THE SAME” (Rgenta Therapeutics, Inc., priority 2021, published 2025).

Each structure is given as a SMILES string. Structures can show the parent of a compound that is named as a salt. A value given as a limit tells only on which side of the number the result lay.

The first test has as its system PMS1. Put plainly: Mini-gene reporter assay-PMS1. The format is cell-based. The note with it: Homo sapiens, HEK293, PMS1 mini-gene firefly luciferase reporter transiently transfected into HEK293 cells; read-out: PMS1 IC50. An excerpt: Biological Activity of the Compounds of the Present Disclosure Mini-gene reporter assay-PMS1
Mini-gene reporter constructs for each target site can be constructed by first PCR amplifying the region-of-interest including the sequence of the alternatively skipped, sequences of the immediate upstream and downstream introns, and sequences of the immediate upstream and downstream exons. Then the 3′end of the amplified sequence can be ligated to a firefly luciferase reporter gene and cloned into the pcDNA3.1 vector backbone. The final reporter construct can be transiently transfected into HEK293 cells using Lipofectamine 3000 transfection reagents. Compounds that can induce the inclusion of the skipped exon in the reporter construct would increase the reporter firefly luciferase activity.
Test compounds may be diluted in duplicates and dispensed into an assay plate. Transient mini-gene reporter cell line stock is resuspended and dispensed into the assay plate. Assay plates are then centrifuged and incubated. A luciferase reagent (e.g. ONE-Glo firefly luciferase reagent from Promega®) may be added to the assay plate and the luminescence (RLU) signals recorded. PMS1 EC50 values may be determined by curve fitting in Levenberg-Marquardt algorithm.
For `CCOc1nc(N2CCC(N3CCNCC3)C2)ncc1C(=O)Nc1cc(F)c2nc(C)cn2c1` (stereo not drawn) [Compound 107], the IC50 was in the range of 1000 to 3000 nM. Regarding `CCOc1nc(N2CC(C)CNC(C)C2)ncc1C(=O)Nc1cc(F)c2nc(C)cn2c1` (stereo not drawn) [Compound 131], the concentration for half-maximal inhibition (IC50) lay in the range of 500 to 1000 nM.

Regarding `CCOc1nc(N2CC3(CCNCC3)CC2C)ncc1C(=O)Nc1cn2cc(C)nc2c(C)n1` (stereo not drawn) [Compound 68], the IC50 was over 3000 nM. `CCOc1nc(N2CCC(NC)C2)ncc1C(=O)Nc1cc(F)c2nc(C)cn2c1` (stereo not drawn) [Compound 229]: the IC50 was under 500 nM. Take `CCOc1nc(N2CC3CNCC3C2)ncc1C(=O)Nc1cn2cc(C)nc2c(C)n1` (stereo not drawn) [Compound 20, N-{2,8-dimethylimidazo[1,2-a]pyrazin-6-yl}-4-ethoxy-2-{octahydropyrrolo[3,4-c]pyrrol-2-yl}pyrimidine-5-carboxamide]: the half-maximal inhibitory concentration (IC50) was under 500 nM. Still for that read-out and setting: as for `CCOc1nc(N2CCC(NC)C2)ncc1C(=O)Nc1cc(OC)c2nc(C)cn2c1` (stereo not drawn) [Compound 283, 4-ethoxy-N-(8-methoxy-2-methylimidazo[1,2-a]pyridin-6-yl)-2-(3-(methylamino)pyrrolidin-1-yl)pyrimidine-5-carboxamide formate], the figure is under 500 nM; as for `CCOc1nc(N2CCC3(CNC3)C2)ncc1C(=O)Nc1cc(F)c2nc(C)cn2c1` [Compound 220], under 500 nM; as for `CCOc1nc(N2CCC3(CCN3)C2)ncc1C(=O)Nc1cn2cc(C)nc2c(C)n1` (stereo not drawn) [Compound 82], 1000 to 3000 nM. In the case of `CCOc1nc(N2CC[C@@H]3NCCC[C@@H]3C2)ncc1C(=O)Nc1cn2cc(C)nc2c(C)n1` (racemic) [Compound 31], the concentration for half-maximal inhibition (IC50) is over 3000 nM. Take `CCOc1nc(N2CC3(CCCNC3)C2)ncc1C(=O)Nc1cn2cc(C)nc2c(C)n1` [Compound 87]: the IC50 lay in the range of 1000 to 3000 nM. For `CCOc1nc(N2CCCC2CNC)ncc1C(=O)Nc1cc(F)c2nc(C)cn2c1` (stereo not drawn) [Compound 188], the half-maximal inhibitory concentration (IC50) is 1000 to 3000 nM. On to `CCOc1nc(N2CCC(NC)C2)ncc1C(=O)Nc1cc(OC)c2nn(C)cc2c1` (stereo not drawn) [Compound 278, 4-ethoxy-N-(7-methoxy-2-methyl-2H-indazol-5-yl)-2-(3-(methylamino)pyrrolidin-1-yl)pyrimidine-5-carboxamide formate], for which the IC50 was under 500 nM. On to `CCOc1nc(N2CC3CCNCC32)ncc1C(=O)Nc1cn2cc(C)nc2c(C)n1` (stereo not drawn) [Compound 48], for which the IC50 is over 3000 nM. Regarding `CCOc1nc(N2CCN[C@H](C)C2)ncc1C(=O)Nc1cc(F)c2nc(C)oc2c1` [Compound 13], the IC50 was 500 to 1000 nM. Turning to `CCOc1nc(N(C)CC2CCCNC2)ncc1C(=O)Nc1cc(F)c2nc(C)cn2c1` (stereo not drawn) [Compound 217], the half-inhibitory concentration (IC50) lay within 1000 to 3000 nM.

For `CCOc1nc(N2CCCC3NCCCC32)ncc1C(=O)Nc1cc(F)c2nc(C)cn2c1` (stereo not drawn) [Compound 122], the IC50 is 500 to 1000 nM. Same read-out and setting: the result for `CCOc1nc(N2CCOC3(CCNC3)C2)ncc1C(=O)Nc1cc(F)c2nc(C)cn2c1` (stereo not drawn) [Compound 195] reads 1000 to 3000 nM; that for `CCOc1nc(N2CC3C4CCC(NC4)C3C2)ncc1C(=O)Nc1cc(F)c2nc(C)cn2c1` (stereo not drawn) [Compound 125], 500 to 1000 nM. `COc1nc(N2CC3CNCC3C2)ncc1C(=O)Nc1cn2cc(C)nc2c(C)n1` (stereo not drawn) [Compound 22, N-{2,8-dimethylimidazo[1,2-a]pyrazin-6-yl}-4-methoxy-2-{octahydropyrrolo[3,4-c]pyrrol-2-yl}pyrimidine-5-carboxamide]: the IC50 was under 500 nM. For the molecule `CCOc1nc(N2CC[C@@H](N(C)C)C2)ncc1C(=O)Nc1cc(F)c2nn(C)cc2c1` [Compound 292, (R)-2-(3-(dimethylamino)pyrrolidin-1-yl)-4-ethoxy-N-(7-fluoro-2-methyl-2H-indazol-5-yl)pyrimidine-5-carboxamide formate], the IC50 fell in the range of 1000 to 3000 nM. Take `CCNC1CN(c2ncc(C(=O)Nc3cn4cc(C)nc4c(C)n3)c(OCC)n2)C1` [Compound 100]: the IC50 is over 3000 nM. As for `CCOc1nc(N2CC[C@@H](NC)C2)ncc1C(=O)Nc1cc(F)c2nc(C)cn2c1` [Compound 262, (R)-4-ethoxy-N-(8-fluoro-2-methylimidazo[1,2-a]pyridin-6-yl)-2-(3-(methylamino)pyrrolidin-1-yl)pyrimidine-5-carboxamide formate], the IC50 was under 500 nM. Consider `CCOc1nc(N2CCNCC2C)ncc1C(=O)Nc1cn2cc(C)nc2c(C)n1` (stereo not drawn) [Compound 42], for which the half-maximal inhibitory concentration (IC50) lay within 500 to 1000 nM. Regarding `CCOc1nc(N2C[C@@H]3CCCN[C@@H]3C2)ncc1C(=O)Nc1cc(F)c2nc(C)cn2c1` [Compound 197], the IC50 was under 500 nM. Regarding `CCOc1nc(N(C)[C@@H]2C[C@H]3CC[C@@H](C2)N3)ncc1C(=O)Nc1cc(F)c2nc(C)cn2c1` [Compound 186], the IC50 is under 500 nM. Still for that read-out and setting: the result for `CCOc1nc(N2CCCC(CNC)C2)ncc1C(=O)Nc1cc(F)c2nc(C)cn2c1` (stereo not drawn) [Compound 228] reads 500 to 1000 nM; that for `COc1nc(N2CCNCC2)ncc1C(=O)Nc1cc(F)c2nc(C)cn2c1` [Compound 1, N-(8-fluoro-2-methylimidazo[1,2-a]pyridin-6-yl)-4-methoxy-2-(piperazin-1-yl)pyrimidine-5-carboxamide, HCl], 1000 to 3000 nM; that for `CCOc1nc(N(CC)C2CCCNCC2)ncc1C(=O)Nc1cc(F)c2nc(C)cn2c1` (stereo not drawn) [Compound 168], under 500 nM. With `CCOc1nc(N2CCCC(C3CCNCC3)C2)ncc1C(=O)Nc1cc(F)c2nc(C)cn2c1` (stereo not drawn) [Compound 146], the half-maximal inhibitory concentration (IC50) was under 500 nM. Still for that read-out and setting: the result for `CCOc1nc(N2CCC(C3(O)CNC3)CC2)ncc1C(=O)Nc1cc(F)c2nc(C)cn2c1` [Compound 129] reads over 3000 nM; that for `CCOc1nc(N2C[C@@H]3C[C@H]2CN3)ncc1C(=O)Nc1cc(F)c2nc(C)cn2c1` [Compound 233], 500 to 1000 nM.

Turning to `CCOc1nc(N2CC[C@@H](NC)C2)ncc1C(=O)Nc1ccc2nn(C)cc2c1` [Compound 286, (R)-4-ethoxy-N-(2-methyl-2H-indazol-5-yl)-2-(3-(methylamino)pyrrolidin-1-yl)pyrimidine-5-carboxamide formate], the IC50 lay in the range of 500 to 1000 nM. With `CCOc1nc(N2CCCNC(CO)C2)ncc1C(=O)Nc1cc(F)c2nc(C)cn2c1` (stereo not drawn) [Compound 121], the IC50 lay within 1000 to 3000 nM. As to `CCOc1nc(N2CCCC(C3CNC3)C2)ncc1C(=O)Nc1cc(F)c2nc(C)cn2c1` (stereo not drawn) [Compound 159], the IC50 is over 3000 nM.

As for `CCOc1nc(N2CCC(C3CCCN3)CC2)ncc1C(=O)Nc1cn2cc(C)nc2c(C)n1` (stereo not drawn) [Compound 73], the IC50 was 500 to 1000 nM. For the molecule `CCOc1nc(N2CCC(C3CCNC3)C2)ncc1C(=O)Nc1cc(F)c2nc(C)cn2c1` (stereo not drawn) [Compound 127], the IC50 lay within 500 to 1000 nM. Still for that read-out and setting: as for `CCOc1nc(N2CCNC(C)(C)C2)ncc1C(=O)Nc1cn2cc(C)nc2cn1` [Compound 10, 2-(3,3-dimethylpiperazin-1-yl)-4-ethoxy-N-{2-methylimidazo[1,2-a]pyrazin-6-yl}pyrimidine-5-carboxamide], the figure is over 3000 nM; as for `CCOc1nc(N2CC3(CC(NC(C)C)CO3)C2)ncc1C(=O)Nc1cc(F)c2nc(C)cn2c1` (stereo not drawn) [Compound 248], under 500 nM. As for `CCOc1nc(N2CCNC3(CC3)C2)ncc1C(=O)Nc1cc(F)c2nc(C)cn2c1` [Compound 296, 4-ethoxy-N-(8-fluoro-2-methylimidazo[1,2-a]pyridin-6-yl)-2-(4,7-diazaspiro[2.5]octan-7-yl)pyrimidine-5-carboxamide 2,2,2-trifluoroacetate], the IC50 is over 3000 nM. Consider `CCOc1nc(N2CC[C@@H]3CNC[C@@H]32)ncc1C(=O)Nc1cc(F)c2nc(C)cn2c1` (racemic) [Compound 209], for which the concentration for half-maximal inhibition (IC50) is under 500 nM. On the same count and under the same terms, as for `CCOc1nc(N2CCC(C3CCCN3)C2)ncc1C(=O)Nc1cn2cc(C)nc2c(C)n1` (stereo not drawn) [Compound 38], the figure is 1000 to 3000 nM; as for `CCOc1nc(N2CCC3(CCNC3)CC2)ncc1C(=O)Nc1cc(F)c2nc(C)cn2c1` [Compound 225], under 500 nM. Still for that read-out and setting: the result for `CCOc1nc(N2CCC3(CC2)CNCCO3)ncc1C(=O)Nc1cc(F)c2nc(C)cn2c1` [Compound 204] reads 500 to 1000 nM. Turning to `CCOc1nc(N2CCC(NC)C2)ncc1C(=O)Nc1cnc2nn(C)cc2c1` (stereo not drawn) [Compound 276, 4-ethoxy-N-(2-methyl-2H-pyrazolo[3,4-b]pyridin-5-yl)-2-(3-(methylamino)pyrrolidin-1-yl)pyrimidine-5-carboxamide formate], the IC50 was over 3000 nM. In the case of `CCOc1nc(N(CC)C2CCNCC2)ncc1C(=O)Nc1cc(F)c2nn(C)cc2c1` [Compound 258, 4-ethoxy-2-(ethyl(piperidin-4-yl)amino)-N-(7-fluoro-2-methyl-2H-indazol-5-yl)pyrimidine-5-carboxamide formate], the IC50 is under 500 nM.

Still in this test, the particulars now being: Homo sapiens; at 5 μM; PMS1 mini-gene firefly luciferase reporter in HEK293 cells; read-out: PMS1% Effect at 5 μM.
For the molecule `CCOc1nc(N2CCCC(OC3CNC3)C2)ncc1C(=O)Nc1cc(F)c2nc(C)cn2c1` (stereo not drawn) [Compound 153], the activation at 5 µM fell in the range of 50 to 75%.

On to `COc1nc(N(C)C2CCNCC2)ncc1C(=O)Nc1cc(F)c2nn(C)cc2c1` [Compound 281, N-(7-fluoro-2-methyl-2H-indazol-5-yl)-4-methoxy-2-(methyl(piperidin-4-yl)amino) pyrimidine-5-carboxamide formate], for which the activation at 5 µM is over 75%.

The test is the same for the next values; noted with them: PMS1 mini-gene firefly luciferase reporter transiently transfected into HEK293 cells; hydrochloride; read-out: PMS1 IC50.
Consider `CCOc1nc(N2C[C@@H](C)N[C@@H](C)C2)ncc1C(=O)Nc1cc(F)c2nc(C)cn2c1` [Compound 4, 2-[(3R,5S)-3,5-dimethylpiperazin-1-yl]-4-ethoxy-N-{8-fluoro-2-methylimidazo[1,2-a]pyridin-6-yl}pyrimidine-5-carboxamide hydrochloride], for which the IC50 lay in the range of 500 to 1000 nM.

The IC50 is the concentration needed to halve the response being measured.
